Experimental data from patent publication US8192962B2, “Processes for detecting toxic substances” (Daikin Industries, Ltd., priority 2001, dated 2012).

Tested on: Metabolism protein genes
Assay: DNA chip mRNA expression in yeast, metabolism protein genes (Table 7)
Assay type: cell-based, Saccharomyces cerevisiae S288C
How it was run: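 Value is the scanned fluorescence intensity ratio of exposed versus chemical-free cells. Log-phase S288C yeast in YPD at 25° C. received one toxic substance for two hours, dosed to slow growth without killing; Cy3/Cy5-labeled cDNA from oligo-dT-purified mRNA was hybridized to a whole-genome chip at 65° C.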

SMILES: Cl[C@H]1[C@H](Cl)[C@@H](Cl)[C@@H](Cl)[C@H](Cl)[C@H]1Cl [(7), γ-hexachlorocyclohexane]
- The level of expressed mRNA in the presence of chemical substance/The level of expressed mRNA in the absence of chemical substance (yeast gene YKL035W): 0.6
- level of expressed mRNA in the presence/in the absence of chemical substance (yeast gene YKL060C): 1.2
- The level of expressed mRNA in the presence of chemical substance/The level of expressed mRNA in the absence of chemical substance (yeast gene YKL091C): 1.9
- The level of expressed mRNA in the presence of chemical substance/The level of expressed mRNA in the absence of chemical substance (yeast gene YKL104C): 2.3
- level of expressed mRNA in the presence/in the absence of chemical substance (yeast gene YKL148C): 0.6
- The level of expressed mRNA in the presence of chemical substance/The level of expressed mRNA in the absence of chemical substance (yeast gene YKL152C): 1.5
- level of expressed mRNA in the presence/in the absence of chemical substance (yeast gene YKL157W): 1.9
- The level of expressed mRNA in the presence of chemical substance/The level of expressed mRNA in the absence of chemical substance (yeast gene YKL213C): 1.0
- The level of expressed mRNA in the presence of chemical substance/The level of expressed mRNA in the absence of chemical substance (yeast gene YKL215C): 1.1
- level of expressed mRNA in the presence/in the absence of chemical substance (yeast gene YKR034W): 0.7
- The level of expressed mRNA in the presence of chemical substance/The level of expressed mRNA in the absence of chemical substance (yeast gene YKR039W): 1.0
- The level of expressed mRNA in the presence of chemical substance/The level of expressed mRNA in the absence of chemical substance (yeast gene YLL058W): 1.5
- level of expressed mRNA in the presence/in the absence of chemical substance (yeast gene YLR006C): 1.1
- level of expressed mRNA in the presence/in the absence of chemical substance (yeast gene YLR044C): 1.3
- level of expressed mRNA in the presence/in the absence of chemical substance (yeast gene YLR056W): 0.8
- level of expressed mRNA in the presence/in the absence of chemical substance (yeast gene YLR058C): 0.5
- level of expressed mRNA in the presence/in the absence of chemical substance (yeast gene YLR081W): 0.7
- level of expressed mRNA in the presence/in the absence of chemical substance (yeast gene YLR089C): 1.6
- The level of expressed mRNA in the presence of chemical substance/The level of expressed mRNA in the absence of chemical substance (yeast gene YLR180W): 0.6
- The level of expressed mRNA in the presence of chemical substance/The level of expressed mRNA in the absence of chemical substance (yeast gene YLR273C): 1.2
- level of expressed mRNA in the presence/in the absence of chemical substance (yeast gene YLR284C): 0.8
- The level of expressed mRNA in the presence of chemical substance/The level of expressed mRNA in the absence of chemical substance (yeast gene YLR299W): 0.8
- The level of expressed mRNA in the presence of chemical substance/The level of expressed mRNA in the absence of chemical substance (yeast gene YLR300W): 0.5
- level of expressed mRNA in the presence/in the absence of chemical substance (yeast gene YLR304C): 0.6
- The level of expressed mRNA in the presence of chemical substance/The level of expressed mRNA in the absence of chemical substance (yeast gene YLR307W): 1.5
- The level of expressed mRNA in the presence of chemical substance/The level of expressed mRNA in the absence of chemical substance (yeast gene YLR348C): 0.9
- level of expressed mRNA in the presence/in the absence of chemical substance (yeast gene YLR354C): 1.1
- level of expressed mRNA in the presence/in the absence of chemical substance (yeast gene YLR372W): 0.2
- level of expressed mRNA in the presence/in the absence of chemical substance (yeast gene YML022W): 0.6
- The level of expressed mRNA in the presence of chemical substance/The level of expressed mRNA in the absence of chemical substance (yeast gene YML054C): 1.2
- The level of expressed mRNA in the presence of chemical substance/The level of expressed mRNA in the absence of chemical substance (yeast gene YML070W): 3.1
- The level of expressed mRNA in the presence of chemical substance/The level of expressed mRNA in the absence of chemical substance (yeast gene YML100W): 2.2
- The level of expressed mRNA in the presence of chemical substance/The level of expressed mRNA in the absence of chemical substance (yeast gene YMR008C): 0.9
- level of expressed mRNA in the presence/in the absence of chemical substance (yeast gene YMR011W): 0.8
- level of expressed mRNA in the presence/in the absence of chemical substance (yeast gene YMR015C): 0.4
- The level of expressed mRNA in the presence of chemical substance/The level of expressed mRNA in the absence of chemical substance (yeast gene YMR020W): 2.7
- level of expressed mRNA in the presence/in the absence of chemical substance (yeast gene YMR083W): 1.7
- The level of expressed mRNA in the presence of chemical substance/The level of expressed mRNA in the absence of chemical substance (yeast gene YMR105C): 2.8
- The level of expressed mRNA in the presence of chemical substance/The level of expressed mRNA in the absence of chemical substance (yeast gene YMR189W): 0.8
- level of expressed mRNA in the presence/in the absence of chemical substance (yeast gene YMR205C): 0.9
- level of expressed mRNA in the presence/in the absence of chemical substance (yeast gene YMR261C): 1.3
- The level of expressed mRNA in the presence of chemical substance/The level of expressed mRNA in the absence of chemical substance (yeast gene YMR271C): 3.4
- The level of expressed mRNA in the presence of chemical substance/The level of expressed mRNA in the absence of chemical substance (yeast gene YMR296C): 0.6
- level of expressed mRNA in the presence/in the absence of chemical substance (yeast gene YMR323W): 1.1
- The level of expressed mRNA in the presence of chemical substance/The level of expressed mRNA in the absence of chemical substance (yeast gene YNL012W): 2.0
- level of expressed mRNA in the presence/in the absence of chemical substance (yeast gene YNL025C): 1.2
- The level of expressed mRNA in the presence of chemical substance/The level of expressed mRNA in the absence of chemical substance (yeast gene YNL045W): 1.8
- The level of expressed mRNA in the presence of chemical substance/The level of expressed mRNA in the absence of chemical substance (yeast gene YNL104C): 0.6
- The level of expressed mRNA in the presence of chemical substance/The level of expressed mRNA in the absence of chemical substance (yeast gene YNL106C): 0.9
- The level of expressed mRNA in the presence of chemical substance/The level of expressed mRNA in the absence of chemical substance (yeast gene YNL169C): 0.7
- level of expressed mRNA in the presence/in the absence of chemical substance (yeast gene YNL192W): 1.0
- The level of expressed mRNA in the presence of chemical substance/The level of expressed mRNA in the absence of chemical substance (yeast gene YNL231C): 2.5
- The level of expressed mRNA in the presence of chemical substance/The level of expressed mRNA in the absence of chemical substance (yeast gene YNL322C): 0.9
- The level of expressed mRNA in the presence of chemical substance/The level of expressed mRNA in the absence of chemical substance (yeast gene YNL331C): 1.9
- The level of expressed mRNA in the presence of chemical substance/The level of expressed mRNA in the absence of chemical substance (yeast gene YNL332W): 2.1
- The level of expressed mRNA in the presence of chemical substance/The level of expressed mRNA in the absence of chemical substance (yeast gene YNR019W): 0.8
- The level of expressed mRNA in the presence of chemical substance/The level of expressed mRNA in the absence of chemical substance (yeast gene YNR033W): 1.2
- The level of expressed mRNA in the presence of chemical substance/The level of expressed mRNA in the absence of chemical substance (yeast gene YNR059W): 1.6
- The level of expressed mRNA in the presence of chemical substance/The level of expressed mRNA in the absence of chemical substance (yeast gene YOL058W): 0.4
- level of expressed mRNA in the presence/in the absence of chemical substance (yeast gene YOL086C): 1.9
- level of expressed mRNA in the presence/in the absence of chemical substance (yeast gene YOL108C): 1.1
- level of expressed mRNA in the presence/in the absence of chemical substance (yeast gene YOL116W): 1.5
- The level of expressed mRNA in the presence of chemical substance/The level of expressed mRNA in the absence of chemical substance (yeast gene YOL126C): 1.4
- The level of expressed mRNA in the presence of chemical substance/The level of expressed mRNA in the absence of chemical substance (yeast gene YOL153C): 3.3
- level of expressed mRNA in the presence/in the absence of chemical substance (yeast gene YOL156W): 1.0
- The level of expressed mRNA in the presence of chemical substance/The level of expressed mRNA in the absence of chemical substance (yeast gene YOL165C): 1.4
- level of expressed mRNA in the presence/in the absence of chemical substance (yeast gene YOR002W): 1.0
- level of expressed mRNA in the presence/in the absence of chemical substance (yeast gene YOR085W): 0.6
- The level of expressed mRNA in the presence of chemical substance/The level of expressed mRNA in the absence of chemical substance (yeast gene YOR099W): 1.0
- level of expressed mRNA in the presence/in the absence of chemical substance (yeast gene YOR103C): 1.2
- level of expressed mRNA in the presence/in the absence of chemical substance (yeast gene YOR108W): 1.2
- level of expressed mRNA in the presence/in the absence of chemical substance (yeast gene YOR128C): 0.7
- The level of expressed mRNA in the presence of chemical substance/The level of expressed mRNA in the absence of chemical substance (yeast gene YOR130C): 1.3
- level of expressed mRNA in the presence/in the absence of chemical substance (yeast gene YOR142W): 1.0
- level of expressed mRNA in the presence/in the absence of chemical substance (yeast gene YOR176W): 0.5
- level of expressed mRNA in the presence/in the absence of chemical substance (yeast gene YOR178C): 0.9
- level of expressed mRNA in the presence/in the absence of chemical substance (yeast gene YOR251C): 1.0
- The level of expressed mRNA in the presence of chemical substance/The level of expressed mRNA in the absence of chemical substance (yeast gene YOR336W): 1.2
- The level of expressed mRNA in the presence of chemical substance/The level of expressed mRNA in the absence of chemical substance (yeast gene YOR347C): 0.9
- level of expressed mRNA in the presence/in the absence of chemical substance (yeast gene YOR348C): 0.8
- The level of expressed mRNA in the presence of chemical substance/The level of expressed mRNA in the absence of chemical substance (yeast gene YPL017C): 1.4
- level of expressed mRNA in the presence/in the absence of chemical substance (yeast gene YPL028W): 1.3
- level of expressed mRNA in the presence/in the absence of chemical substance (yeast gene YPL057C): 0.6
- level of expressed mRNA in the presence/in the absence of chemical substance (yeast gene YPL135W): 1.2
- level of expressed mRNA in the presence/in the absence of chemical substance (yeast gene YPL148C): 1.0
- The level of expressed mRNA in the presence of chemical substance/The level of expressed mRNA in the absence of chemical substance (yeast gene YPR026W): 1.3
- level of expressed mRNA in the presence/in the absence of chemical substance (yeast gene YPR113W): 1.2
- level of expressed mRNA in the presence/in the absence of chemical substance (yeast gene YPR165W): 1.0
- The level of expressed mRNA in the presence of chemical substance/The level of expressed mRNA in the absence of chemical substance (yeast gene YPR167C): 1.2
- level of expressed mRNA in the presence/in the absence of chemical substance (yeast gene YPR183W): 1.2
